Test results reported in patent publication US20240148679A1, “METHODS AND COMPOSITIONS RELATED TO TREATMENT AND PREVENTION OF CANCER BY INHIBITION OF DGAT1 AND DGAT2” (Ohio State Innovation Foundation, priority 2019, published 2024).
Entries after “also recorded” stand apart in the source; their conditions may differ.

Key:
[1] = Toxicity in treated mice (H&E of organs, body weight); type: in vivo; settings: 120 mg/kg/day; for toxic effects in mouse liver, kidney and spleen (H&E staining): 13 days
Procedure: (A) The H&E staining of the liver, kidney and spleen of mice treated with the DGAT1 inhibitor A922500 (120 mg/kg/day, oral gavage) for 13 days. Scale bar, 50 μm. (B) The body weight of mice treated with vehicle or DGAT1 inhibitor A-922500 (120 mg/kg/day, oral gavage) for 13 days. The mice with DGAT1i treatment lost 8% weight at day 13 treatment compared with the mice weight at day 1.
Paraffin tissue sections were deparaffinized in xylene and rehydrated in degraded ethanol (100%, 95% and 70% ethanol), respectively. After washing with dH2O, slides were stained with hematoxylin and eosin solution in sequence followed by washing with dH2O. Then slides were dehydrated in degraded ethanol and immersed in xylene followed by mounting in Permount.
(§1) Intracranial xenograft models were generated using female athymic nude (NCr-nu/nu) mice (6-8 weeks of age obtained from OSU Target Validation Shared Resource). U87EGFRvIII (1×10^6) cells infected with shDGAT1-, shDGAT2- or scramble shRNA-expressing lentivirus for 48 hr (suspended in 100 μl PBS) were implanted into mice flank to generate subcutaneous model. For intracranial xenograft model, U87EGFRvIII-luc (1×10^5) or GBM30-luc (1×10^5) cells infected with shDGAT1-, shDGAT2- or scramble shRNA-expressing lentivirus for 48 hours (suspended in 5 μl PBS) were implanted into mouse brains. Mice were observed until they became moribund, at which point they were sacrificed. For drug treatment, U87EGFRvIII (1×10^6 cells suspended in 100 μl PBS) or GBM30 cells (4×10^6 suspended in 100 μl PBS and then mixed with 100 μl matrigel) were implanted in mouse flanks. DGAT1 inhibitor A-922500 (120 mg/kg/day, oral gavage) was formulated by 1% Tween 80 in PBS and administrated to mice when tumor size reached approximately 80 mm^3.

[2] = tested on: U87/EGFRvIII cells-derived subcutaneous model; assay: U87/EGFRvIII subcutaneous xenograft model; type: in vivo, mice; settings: 120 mg/kg/day
Procedure: (§2) (A-C) The effects of the DGAT1 inhibitor […] (120 mg/kg/day, oral gavage, details in Methods) in U87/EGFRvIII cells (1×10^6 cells/mouse)- or GBM30-derived subcutaneous models (4×10^6 cells/mouse), as shown by tumor growth rate in A and final isolated tumor images and weights in B. Tumor tissues were analyzed for LD presence by IF (TIP47 staining) and CPT1A and cleaved Caspase 3 levels by IHC in C. LD numbers and protein levels in tumor tissues were quantified by ImageJ and averaged from 5 separate areas in each tumor. The results for protein levels were normalized to control tumors (mean±SEM). Statistical significance was determined by one-way ANOVA. * P<0.01 for comparison with control group. Scale bars, m for IF, 40 m for IHC.
(§3) It was next examined whether pharmacological inhibition of DGAT1 is effective in inhibiting GBM growth using U87/EGFRvIII and GBM30 xenograft models. Tumor cells were implanted in mice flanks and started treatment with DGAT1 inhibitor A-922500 (120 mg/kg/day) when tumor reached approximately 80 mm3.
as §1

U251 cells = assay: Mitochondrial membrane potential (Rhodamine 123); type: cell-based, human; settings: 20 μg/ml, 24 hr
Procedure: (A, B) Transmission electron microscopy analysis of the mitochondrial structure in U251cells treated with the DGAT1 inhibitor A-922500 (20 μg/ml) or DGAT2 inhibitor PF-06424439 (20 μg/ml) for 24 hr (A) or infected with shRNA-expressing lentivirus against DGAT1 for 48 hr (B). Scale bar, 500 nm. Mitochondria are indicated by arrows. (C) Representative fluorescence images of mitochondria in U251 cells treated with the DGAT1 inhibitor or DGAT2 inhibitor. Mitochondria were stained with MitoTracker Red. LDs were stained with BODIPY 493/503. Nuclei were stained with Hoechst 33342. Scale bar, 10 μm. (D) Representative fluorescence images of mitochondria in GBM cells infected with shRNA-expressing lentivirus against DGAT1 or DGAT2 for 48 hr. Mitochondria were stained with MitoTracker Red. LDs were stained with BODIPY 493/503. Nuclei were stained with Hoechst 33342. Scale bar, 10 μm. (E, F) Representative fluorescence image analysis of mitochondrial membrane potential stained with Rhodamine123 in U251 cells treated with the DGAT1 inhibitor A-922500 (20 μg/ml) for 24 hr or infected with shRNA-expressing lentivirus against DGAT1 for 48 hr. Nuclei were stained with Hoechst 33342. Scale bar, 10 μm. Rhodamine123 staining was quantified by ImageJ software in more than 100 cells. Statistical significance was determined by s t-test for inhibitor treatment or one-way ANOVA for shRNA knockdown. *P<0.0001. […]

[3] = tested on: GBM30-derived subcutaneous model; assay: GBM30 subcutaneous xenograft model; type: in vivo, mice; settings: 120 mg/kg/day
Procedure: as §2, §3, §1

[4] = oral gavage, listed as A-900225

## O=C(Nc1ccccc1)Nc1ccc(-c2ccc(C(=O)[C@@H]3CCC[C@H]3C(=O)O)cc2)cc1 [A-922500]
[1]; after 13 days, in comparison with vehicle control group
  mice weight decrease: about 8%
[1]; oral gavage
  toxicity in treated mice (overall): does not induce noticeable toxic effects; also recorded: no obvious toxicity was observed
  toxic effects in mouse liver, kidney and spleen (H&E staining): did not observe any toxic effects
[1]; oral gavage, listed as A922500
  toxic effects in mouse liver, kidney and spleen (H&E staining): no obvious toxic effects
[1]; oral gavage, day 13 compared with day 1
  body weight loss: 8%
[2]
  CPT1A expression in tumor tissues: significantly increased CPT1A expression
  LD formation in tumor tissues (TIP47): dramatically suppressed LD formation
  cleaved caspase 3 levels in tumor tissues: markedly elevated cleaved caspase 3 levels
[2]; oral gavage
  tumor growth: significantly suppressed tumor growth
  tumor weight: dramatic reduction in tumor weight
[2]; [4]
  tumor growth: dramatically suppresses GBM tumor growth
U251 cells
  mitochondria membrane potential: significantly reduced
[3]
  CPT1A expression in tumor tissues: significantly increased CPT1A expression
  LD formation in tumor tissues (TIP47): dramatically suppressed LD formation
  cleaved caspase 3 levels in tumor tissues: markedly elevated cleaved caspase 3 levels
[3]; oral gavage
  tumor growth: significantly suppressed tumor growth
  tumor weight: dramatic reduction in tumor weight
[3]; [4]
  tumor growth: dramatically suppresses GBM tumor growth
